# Reference: patent US20210401776A1, “METHOD OF TREATING […] SYNDROMES USING FENFLURAMINE ENANTIOMERS” (ZOGENIX INTERNATIONAL LIMITED, priority 2018, published 2021)
# Entries after “also recorded” stand apart in the source; their conditions may differ.
# How the values were obtained:
# [1] = tested on: WT scn1Lab+/+ zebrafish larvae; assay: maximal tolerated concentration (MTC); type: in vivo, zebrafish (Danio rerio); conditions: no signs of toxicity in 12 out of 12 larvae within 48 hours of exposure
# Method: To evaluate the maximal tolerated concentration (MTC) of each compound, 6 dpf-old WT scn1Lab+^+/+ zebrafish larvae were incubated in a 96-well plate (tissue culture plate, flat bottom, FALCON®, USA) with different concentrations of compound or VHC at 28° C. on a 14/10 hour light/dark cycle under standard aquaculture conditions (medium is replenished daily). Each larva was individually checked under the microscope during a period of 48 hours for the following signs of toxicity: decreased or no touch response upon a light touch of the tail, loss of posture, body deformation, edema, changes in heart rate or circulation and death. […] MTC was determined as 100 micromolar (μM) for (+)-fenfluramine and both norfenfluramine enantiomers. A MTC of 50 μM was determined for (−)-fenfluramine.
# [2] = tested on: dizocilpine-treated mice; assay: dizocilpine-induced learning deficits, statements covering both tests (Y-maze and passive avoidance); type: in vivo, Male Swiss OF-1 mice
# Method: Experiments were conducted to determine the dose-response effects of fenfluramine (FEN) and norfenfluramine (NOR), racemate and (+)- and (−)-isomers, in an in vivo mouse model; the dizocilpine-induced amnesia model (described below) is used to test responses to drugs acting at the sigma-1 receptor (S1R) (Maurice et al., 1994a,b; Maurice, et al., 1998, Neuroscience 83:413-428).
# The drugs were administered intraperitoneally (“ip” or “IP”) with dizocilpine (0.15 mg/kg) and tested in the spontaneous alternation test on day 1 and in the passive avoidance test on days 2-3.
# The apparatus consisted of a 2-compartment box, with one illuminated with white polyvinylchloride (PVC) walls and a transparent cover (15×20×15 cm high), one with black polyvinylchloride walls and cover (15×20×15 cm high), and a grid floor. A guillotine door separated each compartment. A 60 W lamp was positioned 40 cm above the apparatus lit the white compartment during the experimental period. Scrambled foot shocks (0.3 mA for 3 s) were delivered to the grid floor using a shock generator scrambler (Lafayette Instruments, Lafayette, Mass., USA). The guillotine door was initially closed during the training session. Each mouse was placed into the white compartment. After 5 s, the door was raised. When the mouse entered the darkened compartment and placed all its paws on the grid floor, the door was gently closed and the 3-scrambled foot shock was delivered for 3 s. The step-through latency, i.e., the latency spent to enter the dark compartment, and the level of sensitivity to the shock were recorded. The latter was evaluated as: 0=no sign; 1=flinching reactions; 2=flinching and vocalization reactions. The retention test was carried out 24 h after training. Each mouse was placed again into the white compartment. After 5 s, the door was raised. The step-through latency was recorded up to 300 s. Animals entered the darkened compartment or were gently pushed into it and the escape latency, i.e., the time spent to return into the white compartment, was also measured up to 300 s. Results were expressed as median and interquartile (25%-75%) range.
# The Y-maze is made of grey PVC. Each arm is 40 cm long, 13 cm high, 3 cm wide at the bottom, 10 cm wide at the top, and converged at an equal angle. Each mouse was placed at the end of one arm and allowed to move freely through the maze during an 8-min session. The series of arm entries, including possible returns into the same arm, were checked visually. An alternation was defined as entries into all three arms on consecutive occasions. The number of maximum alternations was therefore the total number of arm entries minus two and the percentage of alternation was calculated as: actual alternations/maximum alternations)×100. Parameters included the percentage of alternation (memory index) and total number of arm entries (exploration index).
# [3] = tested on: dizocilpine-treated mice; assay: step-through passive avoidance, dizocilpine-induced amnesia model; type: in vivo, Male Swiss OF-1 mice; conditions: Table 4 StepThrough/PassiveAvoidance
# [4] = in vivo; cited from earlier work
# [5] = tested on: dizocilpine-treated mice; assay: spontaneous alternation in the Y-maze, dizocilpine-induced amnesia model; type: in vivo, Male Swiss OF-1 mice; conditions: Table 4 Y Maze
# [6] = tested on: homozygous scn1Lab−/− mutants; assay: zebrafish locomotor assay (total distance in large movements, lardist); type: in vivo, zebrafish (Danio rerio); conditions: scn1Lab−/− mutants, fixed concentration, FIG. 3
# Excerpt: (Baraban et al, 2013). Additional phenotypes of these mutants include: abnormal optokinetic response (OKR; 5 dpf); darkened pigmentation; death by 14 dpf; spontaneous seizure-like activity; abnormal (forebrain electrographic activity (3-7 dpf); seizure activity; lower levels of serotonin in scn1lab^−/− head homogenates at 7 dpf; zebrafish express orthologs of human serotonin (5HT) receptor subtypes at 5 dpf; nighttime hyperactivity (5 dpf); in open field-increased thigmotaxis. decreased movement (at 5 dpf); no differences in GABAergic neurons compared to wild type (5 dpf); 5-HT2a (hitr2aa/b) and S-HT2c; (htr2c11) orthologs expressed in larval heads in wild-type and scn1lab−/− mutants and in adult wild-type brains.
# To assay the locomotor activity of homozygous scn1Lab−/− mutants and control WT scn1Lab+/+, zebrafish larvae were placed one larva per well in a 96-well plate in 100 μL of embryo medium from 4 to 8 days post-fertilization (dpf). Each day the larvae are tracked in an automated tracking device (ZebraBox™ apparatus; Viewpoint, Lyon, France) for 10 min after 30 min habituation (100-second integration interval). All recordings were performed at the same time during daytime period. The total distance in large movements was recorded and quantified using ZebraLab™ software (Viewpoint, Lyon, France). Data was pooled together from at least three independent experiments with at least 24 larvae per condition.
# Scn1Lab^−/− mutants and WT scn1Lab+/+ larvae are arrayed in the same plate and treated at 6 days post fertilization (dpf) with the test compounds (25 μM), or VHC in individual wells of a 96-well plate. After incubation at 28° C. on a 14/10 hour light/dark cycle and 30-min chamber habituation 6 and 7 dpf larvae are tracked for locomotor activity for 10 min (100-second integration interval) under dark conditions. An incubation time of 1.5 hours is further referred to as short treatment (6 dpf). Furthermore, these larvae are analyzed after more than 22 hours incubation (7 dpf), i.e. long treatment. The total locomotor activity is quantified using the parameter lardist and plotted in cm. Data for each compound is pooled together from multiple independent experiments with at least 9 larvae per treatment condition.
# [7] = tested on: homozygous scn1Lab−/− mutants; assay: epileptiform activity, open-field recordings in larval forebrain (LFP assay); type: in vivo, zebrafish (Danio rerio)
smiles,measurement,setting,value
"CCN[C@H](C)Cc1cccc(C(F)(F)F)c1 [(−)-Fenfluramine, (2R)-N-ethyl-1-[3-(trifluoromethyl)phenyl]propan-2-amine]",maximum tolerated concentration (MTC),[1],50 µM
same,effect on PRE-084 efficacy,"[2]; 1 mg/kg on effective doses of PRE-084 (0.3-1 mg/kg), FIG. 10 (e, f)",without effect on PRE-084 efficacy
same,effect on PRE-084 efficacy,[2]; combined with PRE-084 in dizocilpine-treated mice,without any effect on PRE-084 efficacy
same,behavior as S1R antagonist,"[2]; mouse, in vivo",does not behave as a S1R antagonist
same,PP (%),[3]; drug alone 0.3 mg/kg IP,3.9 ± 8.4%
same,PP (%),[3]; drug alone 1 mg/kg IP,7.3 ± 13.8 ^4%
same,mean elimination half-life,[4],25 h
same,PP (%),[5]; drug alone 0.3 mg/kg IP,3.2 ± 8.1%
same,PP (%),[5]; drug alone 1 mg/kg IP,13.8 ± 10.5 ^2%
same,reduction in seizure behavior,[6],41%
same,anti-epileptiform activity (frequency and cumulative duration of epileptiform events over 10 minutes),"[7]; 50 micromolar, FIGS. 4 and 5",comparable
same,LFP Assay,"[7]; Table 1, 25, 59 and 100 μM, oral via embryo medium",Also reduces spikes but less; also recorded: Normal dose-response; higher
